Key:
CB2 = molecular target: T1, CB2 (Homo sapiens, UniProt P34972); experiment: NanoLuc complementation beta-arrestin […] recruitment, live cells; format: cell-based; settings: read-out: CB2 / EC50 (nM) (± 95% CI)
T1 construct: gene CNR2; co-expressed with beta-arrestin 2 fused to the complementary fragment

CB1 = molecular target: T2, CB1 (Homo sapiens, UniProt P21554); experiment: as above; format: cell-based; settings: read-out: CB1 / EC50 (nM) (± 95% CI)
T2 construct: gene CNR1; co-expressed with beta-arrestin 2 fused to the complementary fragment
T2 sequence (P21554 whole entry, the tested form may be a part): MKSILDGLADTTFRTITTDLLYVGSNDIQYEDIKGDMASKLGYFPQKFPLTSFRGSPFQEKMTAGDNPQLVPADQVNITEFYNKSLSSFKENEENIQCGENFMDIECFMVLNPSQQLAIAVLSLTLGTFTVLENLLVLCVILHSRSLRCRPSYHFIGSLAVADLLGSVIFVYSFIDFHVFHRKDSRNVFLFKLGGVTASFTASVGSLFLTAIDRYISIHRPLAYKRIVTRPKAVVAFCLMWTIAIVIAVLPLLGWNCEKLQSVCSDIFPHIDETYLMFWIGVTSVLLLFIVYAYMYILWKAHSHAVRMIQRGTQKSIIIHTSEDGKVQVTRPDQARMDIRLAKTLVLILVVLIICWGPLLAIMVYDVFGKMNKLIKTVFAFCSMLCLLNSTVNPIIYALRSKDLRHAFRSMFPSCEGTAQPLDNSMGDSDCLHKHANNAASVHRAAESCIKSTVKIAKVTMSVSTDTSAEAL

T1 sequence (P34972 whole entry, the tested form may be a part): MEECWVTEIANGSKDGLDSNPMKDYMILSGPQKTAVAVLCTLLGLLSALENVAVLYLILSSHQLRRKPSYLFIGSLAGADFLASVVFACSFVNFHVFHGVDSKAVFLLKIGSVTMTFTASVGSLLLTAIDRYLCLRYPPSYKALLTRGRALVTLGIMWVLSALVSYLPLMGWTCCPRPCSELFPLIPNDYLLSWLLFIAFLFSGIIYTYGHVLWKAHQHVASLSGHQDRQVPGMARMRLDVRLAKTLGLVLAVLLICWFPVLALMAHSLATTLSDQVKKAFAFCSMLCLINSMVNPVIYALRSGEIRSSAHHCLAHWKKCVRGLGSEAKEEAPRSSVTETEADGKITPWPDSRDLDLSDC

| Compound | EC50 (CB2) | EC50 (CB1) |
| --- | --- | --- |
| CC(C)[C@H](NC(=O)c1nn(Cc2ccc(F)cc2)c2ccccc12)C(N)=O [compound 1, N-(2S)-(1-amino-3-methyl-1-oxobutan-2-yl)-1-(4-fluorobenzyl)-1H-indazole-3-carboxamide] | 1.6 nM | 12.9 nM |
| COC(=O)[C@H](NC(=O)c1nn(CCCCCF)c2ccccc12)C(C)(C)C [compound 3, (R)-5F-MDMB-PINACA] | 6.87 nM | 131 nM |
| CC(C)[C@@H](NC(=O)c1nn(Cc2ccc(F)cc2)c2ccccc12)C(N)=O [compound 1, (R)-AB-FUBINACA] | 102 nM | 1480 nM |
| COC(=O)[C@@H](NC(=O)c1nn(CCCCCF)c2ccccc12)C(C)(C)C [compound 3, (S)-5F-MDMB-PINACA] | 1.46 nM | 1.78 nM |
| COC(=O)[C@H](NC(=O)c1nn(Cc2ccc(F)cc2)c2ccccc12)C(C)C [compound 2, (R)-AMB-FUBINACA] | 1.19 nM | 55.8 nM |
| COC(=O)[C@@H](NC(=O)c1nn(Cc2ccc(F)cc2)c2ccccc12)C(C)C [compound 2, methyl (2S)-2-(1-(4-fluorobenzyl)-1H-indazole-3-carboxamido)-3-methylbutanoate] | 0.77 nM | 9.11 nM |
| CCCCCn1cc(C(=O)c2cccc3ccccc23)c2ccccc21 [compound 19, JWH-018, reference compound] | 9.71 nM | 45.1 nM |
| CC(C)[C@@H](NC(=O)c1nn(CC2CCCCC2)c2ccccc12)C(N)=O [compound 4, (R)-AB-CHMINACA] | 33.6 nM | 319 nM |
| CC(C)[C@H](NC(=O)c1nn(CC2CCCCC2)c2ccccc12)C(N)=O [compound 4, N-(2S)-(1-amino-3-methyl-1-oxobutan-2-yl)-1-(cyclohexylmethyl)-1H-indazole-3-carboxamide] | 1.75 nM | 6.16 nM |

— PMC6532652, “Enantiospecific Synthesis, Chiral Separation, and Biological Activity of Four Indazole-3-Carboxamide-Type Synthetic Cannabinoid Receptor Agonists and Their Detection in Seized Drug Samples” (Frontiers in Chemistry, 2019)
